The values below come from patent publication US12692288B2, “Crystalline and liquid crystalline 25-hydroxy-cholest-5-en-3-sulfate sodium and methods for preparing same” (Medicis Pharmaceutical Corporation, priority 2019, dated 2026).

Common to all, as to format: physicochemical
The nature of data set [1]: Dynamic Vapor Sorption test (SMS DVS Intrinsic), Example 23. To be noted: 25° C. How it is done:
Dynamic Vapor Sorption (DVS) was measured using an SMS (Surface Measurement Systems) DVS Intrinsic. [table]

The nature of data set [2]: Water activity slurries in aqueous solvent mixtures, solid phase by XRPD. An excerpt:
The effect of water activity (aw) on the hydration state can be investigated through competitive water activity trituration experiments (slurries) in various aqueous solvent mixtures. The resulting solid phase can be characterized by x-ray powder diffraction. The experiments can establish the physically stable form at various aw. Water activity can also be related to relative humidity in that RH %=aw×100. Therefore, it is possible to directly relate the stability of an anhydrous/hydrate system in slurry experiments to solid-state stability. The slurry technique at controlled water activities can provide an accurate method of rapidly predicting the physically stable form in anhydrous/hydrate systems. […] The times, temperatures, and humidity are approximate. As with Table 1, the term “B” means birefringent when viewed by polarized light microscopy with cross polars.
Solutions were prepared by adding enough solids to a given solvent so that excess solids were present. The mixture was then agitated in a sealed vial at either ambient or elevated temperature. After a given amount of time, the solids were isolated for analysis.

Data set [3] can be described thus: Dynamic vapor sorption/desorption (DVS), VTI SGA-100. The settings on record: for form of material recovered after DVS, by XRPD: after sorption/desorption 5% to 95% RH. How it is done: Moisture sorption/desorption data were collected on a VTI SGA-100 Vapor Sorption Analyzer. NaCl and PVP were used as calibration standards. Samples were not dried prior to analysis. […] The equilibrium criterion used for analysis was less than 0.0100% weight change in 5 minutes with a maximum equilibration time of 3 hours. Data were not corrected for the initial moisture content of the samples.

The nature of data set [4]: Physical stability of forms on exposure to humidity, temperature or vacuum, by XRPD. An excerpt:
X-ray powder diffraction patterns were collected with a PANalytical X'Pert PRO MPD or PANalytical Empyrean diffractometer using an incident beam of Cu radiation produced using a long, fine-focus source. An elliptically graded multilayer mirror was used to focus Cu Kα x-rays through the specimen and onto the detector. […] A specimen of the sample was sandwiched between 3-μm-thick films and analyzed in transmission geometry. A beam-stop, short anti-scatter extension, and anti-scatter knife edge were used to minimize the background generated by air. Soller slits for the incident and diffracted beams were used to minimize broadening and asymmetry from axial divergence. Diffraction patterns were collected using a scanning position-sensitive detector (X'Celerator) located 240 mm from the specimen and Data Collector software v. 2.2b or 5.5. All images were produced with the instrument labeled as X'Pert PRO MPD regardless of the instrument used.
X-ray powder diffraction patterns were collected with a PANalytical X'Pert PRO MPD diffractometer using an incident beam of Cu Kα radiation produced using a long, fine-focus source and a nickel filter. The diffractometer was configured using the symmetric Bragg—Brentano geometry. […] A specimen of the sample was packed in a well. Anti-scatter slits were used to minimize the background generated by air. Soller slits for the incident and diffracted beams were used to minimize broadening from axial divergence. Diffraction patterns were collected using a scanning position-sensitive detector (X'Celerator) located 240 mm from the sample and Data Collector software v. 2.2b.

The nature of data set [5]: Variable humidity XRPD (VH-XRPD). The settings on record: for time to complete dehydration/conversion to Form XIII: exposure to 0% RH. The text has this: (§1) X-ray powder diffraction patterns were collected with a PANalytical X'Pert PRO MPD diffractometer using an incident beam of Cu Kα radiation produced using a long, fine-focus source and a nickel filter. The diffractometer was configured using the symmetric Bragg—Brentano geometry. Data were collected and analyzed using Data Collector software v. 2.2b. […] A specimen of the sample was packed in a nickel-coated copper well. Antiscatter slits were used to minimize the background generated by air. Soller slits for the incident and diffracted beams were used to minimize broadening from axial divergence. Diffraction patterns were collected using a scanning position-sensitive detector (X'Celerator) located 240 mm from the sample and Data Collector software v. 2.2b.
An Anton Paar temperature-humidity chamber (THC) was used to collect in-situ x-ray powder diffraction patterns as a function of humidity. The temperature of the specimen was controlled with a Peltier thermoelectric device located directly under the specimen holder and monitored with a platinum-100 resistance sensor located in the specimen holder. The thermoelectric device was powered and controlled by an Anton Paar TCU 50 interfaced with Data Collector software.
The humidity was generated with an RH-200 manufactured by VTI Inc. and carried by a flow of nitrogen gas. The humidity and temperature were monitored by a Rotronic HygroClip sensor located next to the specimen inside the THC.

Data set [6] can be described thus: Variable temperature XRPD (VT-XRPD).
Description: as §1, with “air scattering.” for “air.”, “sample.” for “sample and Data Collector software v. 2.2b.”
An Anton Paar TTK 450 stage was used to collect in-situ x-ray powder diffraction patterns as a function of temperature. The sample was heated with a resistance heater located directly under the sample holder, and the temperature was monitored with a platinum-100 resistance sensor located in the specimen holder. The heater was powered and controlled by an Anton Paar TCU 100 interfaced with Data Collector software.

Where [7] appears, read: from 5 to 25% RH, screening material, mixture of Form I and Form II.
Where [8] appears, read: from 25 to 85% RH, screening material, mixture of Form I and Form II.

As to `C[C@H](CCCC(C)(C)O)[C@H]1CCC2C3CC=C4C[C@@H](OS(=O)(=O)[O-])CC[C@]4(C)C3CC[C@@]21C.[Na+]` (stereo partly drawn) [25HC3S sodium, Sodium [(3S,10R,13R,17R)-17-[(1R)-5-hydroxy-1,5-dimethyl-hexyl]-10,13-dimethyl-2,3,4,7,8,9,11,12,14,15,16,17-dodecahydro-1H-cyclopenta[a]phenanthren-3-yl] sulfate], the “hygroscopicity (DVS test)” value in data set [1] is listed as “hygroscopic”. The compound further yielded a moisture reversibly absorbed in data set [1] (below 30% RH) of 7.0%. Moreover, the water absorbed in data set [1] (by 95% RH) is reported as 8.5%. For the same compound, the “Result (form) of water activity slurry” value is “I +” in data set [2] (0.73 aw, 94:06 ACN/H2O, 8 days, approximately room temperature); “I +” in data set [2] (combination of samples from 0.5 aw and 0.38 aw, 56 days, filtered and dried under N2 for 30 min.). Also, the “form of material recovered after DVS, by XRPD” value in data set [3] was “predominantly Form I with an additional peak near 8.8°”. For the same compound, the “water corresponding to weight gain (DVS)” value in data set [3] (setting [7]) was 1.5 mol/mol water; in data set [3] (setting [8]), 1.8 mol/mol water. In addition, the “weight gain (DVS)” value is on record as “approximately 5 wt %” in data set [3] (setting [7]), about 6 wt % in data set [3] (setting [8]) and about 6 wt % in data set [3] (from 85 to 95% RH). Further, the “hygroscopicity (DVS isotherm)” value in data set [3] (screening material, mixture of Form I and Form II) is “hygroscopic”. Further, in data set [4] (75% RH for 10 days, screening material, mixture of Form I and Form II), the “form after humidity exposure, by XRPD” value was “predominately Form I and two additional peaks near 4.4°2θ and 8.8°2θ”. Also, the “form after heat exposure, by XRPD” value in data set [4] (briefly exposed to 130° C., screening material, mixture of Form I and Form II) is “mixture of Forms I, II, and XIII”.
Take `C[C@H](CCCC(C)(C)O)[C@H]1CC[C@H]2[C@@H]3CC=C4C[C@@H](OS(=O)(=O)[O-])CC[C@]4(C)[C@H]3CC[C@]12C.[Na+]` [Form V, 25HC3S sodium]: the “water activity of aqueous solvent mixture slurries from which the form resulted” value in data set [2] is “above 0.73 aw”. In addition, the “physical stability by XRPD” value in data set [4] (exposure to 55° C. and vacuum for 1 day) is reported as “remained Form V”; in data set [4] (storage at ambient conditions for 25 days), “no changes observed”.
Regarding `C[C@H](CCCC(C)(C)O)[C@H]1CC[C@H]2[C@@H]3CC=C4C[C@@H](OS(=O)(=O)[O-])CC[C@]4(C)[C@H]3CC[C@]12C.[Na+]` [Form III, 25HC3S sodium], the “form change on heating” value in data set [4] (58° C. and vacuum overnight, or 130° C.) is reported as “desolvates to another anhydrous form, Form IX”. The “form change at ambient conditions” value in data set [4] was “desolvates to Form II”.
With `C[C@H](CCCC(C)(C)O)[C@H]1CC[C@H]2[C@@H]3CC=C4C[C@@H](OS(=O)(=O)[O-])CC[C@]4(C)[C@H]3CC[C@]12C.[Na+]` [Forms I+XIII, 25HC3S sodium], in data set [5], the “time to complete dehydration/conversion to Form XIII” value is at most 20 min. In addition, the “form change on exposure to humidity” value in data set [5] (isolated at 15% RH, exposed to 25% RH, held minimum one hour) is given as “converted to Form I”.
As for `C[C@H](CCCC(C)(C)O)[C@H]1CC[C@H]2[C@@H]3CC=C4C[C@@H](OS(=O)(=O)[O-])CC[C@]4(C)[C@H]3CC[C@]12C.[Na+]` [Form I, 25HC3S sodium], the “behaviour upon exposure to 0% RH” value in data set [5] (0% RH) is on record as “dehydrate within minutes to Form XIII”. In data set [5], the “time to complete dehydration/conversion to Form XIII” value was 20 min. Besides, in data set [2], the “water activity above which Form I is believed to form liquid crystal Form V” value was “above 0.73 aw”. In addition, in data set [6], the “temperature by which decomposition product trisodium hydrogen disulfate, Na3H(SO4)2, was evident” value was at most 170 °C. For the same compound, the “form shown after dehydration by heating” value in data set [6] (heating to 170° C. and then dropping to 135° C.) was “Form XIII”. Besides, in data set [4], the hygroscopicity result is reported as “hygroscopic”. Further, the “form change on drying” value in data set [4] (exposure to either 0% RH or 70° C. under vacuum) is listed as “dehydrated Form I to Form XIII”.
On to `C[C@H](CCCC(C)(C)O)[C@H]1CC[C@H]2[C@@H]3CC=C4C[C@@H](OS(=O)(=O)[O-])CC[C@]4(C)[C@H]3CC[C@]12C.[Na+]` [Form II, 25HC3S sodium], for which the “form change in variable humidity XRPD” value in data set [5] (ambient temperature, 0% to 85% RH) is “a form change did not occur”. In addition, the “water accommodated in fully hydrated state” value in data set [3] (DVS sorption isotherm at 85% RH (FIG. 16)) was “approximately 3 mol/mol of water”. For the same compound, the “form of material recovered after DVS, by XRPD” value in data set [3] is “mixture of Form II and Form V”. Besides, the entries for the “water corresponding to weight gain (DVS)” value in data set [3] (from 5 to 55% RH) and in data set [3] (from 55 to 85% RH) were 1 mol/mol water and 2 mol/mol water, respectively. The “weight gain (DVS)” value in data set [3] (from 5 to 55% RH) is “approximately 3.5 wt %”; in data set [3] (from 55 to 85% RH), about 7 wt %; in data set [3] (from 85 to 95% RH) it was about 7 wt %. Also, the “form observed by XRPD at elevated temperature” value in data set [6] (135° C.) is recorded as “still observed”. Moreover, in data set [4], the “relative humidity of exposure at which the form converts to Form V” value is listed as at least 75 % RH. The “time to conversion to Form V” value in data set [4] (exposure to 75% RH) is reported as “up to 35 days”. The “form stability by XRPD” value in data set [4] (stored at 0% RH for up to 35 days) and in data set [4] (under dry nitrogen for up to 4 days) was “remained unchanged” throughout.
With `C[C@H](CCCC(C)(C)O)[C@H]1CC[C@H]2[C@@H]3CC=C4C[C@@H](OS(=O)(=O)[O-])CC[C@]4(C)[C@H]3CC[C@]12C.[Na+]` [Form XIII, 25HC3S sodium], the “relative humidity before which Form XIII hydrates to Form I” value in data set [5] (increasing humidity) is given as under 25 % RH. Besides, the “form change at ambient conditions” value in data set [4] is on record as “quickly hydrates to Form I”.
